# Results published in patent US20230348453A1, “HALOGENATED-HETEROARYL AND OTHER HETEROCYCLIC KINASE INHIBITORS, AND USES THEREOF” (iOmx Therapeutics AG, priority 2020, published 2023).
# Values joined by “and” are separate entries in the source; they are usually repeats but may differ in a detail not shown here. Identical values can stand only once.
# Columns and labels:
# [1] = test system: NFKB activity in reporter PANC-1 cells; test: NFKB luciferase reporter activity in PANC-1 cells; format: cell-based; conditions: Homo sapiens; PANC-1 reporter cells, +10 ng/ml rHuTNF for 8 h
# Procedure: Luciferase activity was normalized to PANC-1 cells treated with rHuTNF without inhibitor (DMSO only). Y-axis=NFKB activity (%). […] Whole cell lysates were analyzed in a Meso Scale Discovery (MSD) assay with anti-HDAC4 capture and anti-pHDAC4 detection antibodies. HDAC4 phosphorylation was normalized to untreated PANC-1 cells (DMSO only). Y-axis=HDAC4 phosphorylation (%). X-axis=Compound concentration (nM).
# (§1) FIG. 28: depicts: (A) and (B) effect of compound E9 on NFKB activity. […] Luciferase activity was normalised to cells treated with rHuTNF without inhibitor (DMSO only). Y-axis=NFKB activity (%). X-axis=compound concentration (nM); Bar “A” viability without compound and without TNF; bar “B” viability without compound and with 10 ng/ml TNF; and (C) Effect of compound E9 on HDAC4 phosphorylation. […] Whole cell lysates were analysed in a Meso Scale Discovery (MSD) assay with anti-HDAC4 capture and anti-pHDAC4 detection antibodies. HDAC4 phosphorylation was normalized to untreated PANC-1 cells (DMSO only). Y-axis=HDAC4 phosphorylation (%). X-axis=Compound concentration (nM).
# [2] = female, C57BL/6, mouse, in vivo, 7 days
# [3] = test system: MC38 colorectal carcinoma tumours; test: MC38 syngeneic mouse tumour model (Example 8.1); conditions: MC38; for Body weight increase (%) / Non-treatment related death / Tumour growth inhibition (%): BID po
# [4] = Human plasma-protein binding
# [5] = test system: SIK3 WT and KO MC38 clones; test: TNF-mediated killing of SIK3 wildtype vs SIK3 knockout MC38 clones (CTG); format: cell-based, mouse; conditions: sub-optimal TNF (<10 ng/ml), 72 h
# Procedure: The assay was performed as follows: MC38 SIK3 KO clones were generated using CRISPR. Cells were transfected with RNP complexes (Cas9+gRNA) containing gRNAS targeting SIK3 or non-targeting sequences (control). […] Subsequently, single cell clones were generated by limiting dilution. CRISPR-derived mutations in single clones were detected by next-generation sequencing and analysed using CRISPResso. Knockout and wildtype clones were selected and plated overnight. […] Cells treated with different concentrations of inhibitor but without TNF served as no TNF control. Cell viability was measured by CTG assay.
# in vitro = conditions: mouse, microsomes
# [6] = Mouse hepatocyte stability; format: in vitro ADME; conditions: hepatocytes
# [7] = Metabolite profile in hepatocytes / in vivo
# Excerpt: Metabolites are identified using high-resolution mass spectrometry.
# SIK3 = SIK3 (Homo sapiens (Human), UniProt Q9Y2K2); test: SIK3 kinase inhibition (IC50); conditions: read-out: Kinase: IC50 (nM) SIK3
# [8] = test system: HDAC4 phosphorylation in PANC-1 cells; test: HDAC4 phosphorylation (Meso Scale Discovery assay); conditions: 10 ng/mL rHuTNF, 3 h
# [9] = test system: NFKB activity in reporter MC38 cells; test: NFKB luciferase reporter activity in MC38 cells; format: cell-based, murine; conditions: Mus musculus, MC-38, +10 ng/ml rHuTNF for 8 h
# Procedure: as §1
# [10] = test system: MC38 murine tumour cell line; test: TNF-sensitised cell viability assay (CellTiter-Glo); conditions: Mus musculus
# HCK = HCK (Homo sapiens (Human), UniProt P08631); format: biochemical; conditions: Kinase Profiler
# CSF1R = CSF1R (Homo sapiens (Human), UniProt P07333); format: biochemical; conditions: Kinase Profiler
# [11] = test system: EMT6 breast cancer tumours; test: EMT6 immune-excluded (cold) tumour syngeneic mouse model; format: in vivo, BALB/c mice; design: key to Tukey's multiple comparisons test, Significance summary: ns = not significant; conditions: for Tukey's multiple comparisons test, Significance summary: EMT6 model; for tumour growth inhibition (TGI): EMT6
# MC38 tumour = test: MC38 syngeneic tumour model, tumour growth and survival; format: in vivo, mice; conditions: E9 24 mg/kg BID compared to dasatinib 30 mg/kg QD
# Procedure: Error bars SEM. X-axes: Days. Statistical significance was calculated with two-way ANOVA analysis including Tukey's multiple comparison analysis. ***p<0.001; (B) Body weight kinetics of the mice in (A). Y-axis: Mean body weight change (%).
# Y-axis=Mean tumour volume (mm3). […] X-axis=Days. […] X-axis: Days.
# Left hand column=compound treatment group; and right hand column=vehicle treatment group. Y axes=Tumour volume (mm3); X axes=Days after inoculation.
# FIG. 29: depicts the effect of compound E9 and anti PD-1 mAB (alone or in combination) on in vivo tumour growth (mean+/−SEM) in a MC38 syngeneic tumour model. (A) Y axes=Tumour volume (mm3); X axes=Days after start of therapy. Vehicle+anti PD-1 mAB (squares), vehicle+mIgG1e ctr (circles), E9+anti PD-1 mAB (inverted triangles), and E9+mIgG1e ctr (triangles). (B) Median overall survival.) Y axes=Probability of survival (%); X axes=Days after start of therapy. Vehicle+anti PD-1 mAB (grey/dashed), vehicle+mIgG1e ctr (black/solid), E9+anti PD-1 mAB (grey/solid), and E9+mIgG1e ctr (black/dashed). […] (C) E9 25 mg/kg BID; (D) aPD-1 2.5 mg/kg; (E) E9 50 mg/kg BID+aPD-1 2.5 mg/kg; and (F) vehicle.
# in vivo = conditions: male, CD1, mouse, po, 30 mg/kg
# [12] = test system: NFKB activity in PANC-1 cells; test: TNF-induced NFKB activity (NFKB-dependent luciferase reporter); conditions: 10 ng/ml rHuTNF, PANC-1 reporter cells
# CSF1R, sequence (P07333 20-972 limits assumed): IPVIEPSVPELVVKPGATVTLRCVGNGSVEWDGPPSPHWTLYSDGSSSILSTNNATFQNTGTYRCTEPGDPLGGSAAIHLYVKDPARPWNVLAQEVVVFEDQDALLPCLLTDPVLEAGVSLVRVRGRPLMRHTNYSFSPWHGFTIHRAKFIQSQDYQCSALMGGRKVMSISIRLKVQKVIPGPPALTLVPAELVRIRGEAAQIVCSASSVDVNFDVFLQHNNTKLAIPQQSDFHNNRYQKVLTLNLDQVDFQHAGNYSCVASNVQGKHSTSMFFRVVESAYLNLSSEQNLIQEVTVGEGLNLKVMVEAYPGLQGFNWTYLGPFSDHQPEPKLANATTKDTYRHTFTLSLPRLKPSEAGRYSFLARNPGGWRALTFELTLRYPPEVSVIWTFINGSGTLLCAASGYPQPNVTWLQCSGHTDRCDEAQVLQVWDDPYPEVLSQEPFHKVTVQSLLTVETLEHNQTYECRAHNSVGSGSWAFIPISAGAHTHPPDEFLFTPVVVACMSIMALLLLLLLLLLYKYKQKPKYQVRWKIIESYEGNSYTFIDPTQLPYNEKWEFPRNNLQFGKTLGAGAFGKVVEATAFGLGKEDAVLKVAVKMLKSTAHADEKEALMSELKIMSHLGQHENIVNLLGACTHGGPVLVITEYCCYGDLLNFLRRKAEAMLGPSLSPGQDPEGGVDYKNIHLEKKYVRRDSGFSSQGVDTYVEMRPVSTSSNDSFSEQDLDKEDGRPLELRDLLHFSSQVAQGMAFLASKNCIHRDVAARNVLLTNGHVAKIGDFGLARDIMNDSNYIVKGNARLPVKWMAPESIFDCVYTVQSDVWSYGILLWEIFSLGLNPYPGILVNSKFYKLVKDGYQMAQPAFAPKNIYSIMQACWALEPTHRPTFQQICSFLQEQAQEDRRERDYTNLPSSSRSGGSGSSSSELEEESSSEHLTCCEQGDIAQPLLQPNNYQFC
smiles,measurement,setting,value
"Cc1nc(Nc2ncc(C(=O)Nc3c(CF)csc3Cl)s2)cc(N2CCN(C)CC2)n1 [Compound E9, N-(2-chloro-4-(fluoromethyl)thiophen-3-yl)-2-((2-methyl-6-(4-methylpiperazin-1-yl)pyrimidin-4-yl)amino)thiazole-5-carboxamide]",EC50,[1],405 nM
same,DLT@BID dosing,[2],n.d. @50 mg/kg
same,DLT@QD dosing,[2],n.d. @50 mg/kg
same,HRD in vivo @BID,[2],50 mg/kg
same,HRD in vivo @QD,[2],50 mg/kg
same,Body weight increase (%),[3]; 25 mg/Kg,16.8%
same,Non-treatment related death,[3]; 25 mg/Kg,2/16
same,Tumour growth inhibition (%),[3]; 25 mg/Kg,74%
same,average TGI,[3]; 25 mg/kg BID,72%
same,Body weight increase (%),[3]; 50 mg/Kg,18.7%
same,Non-treatment related death,[3]; 50 mg/Kg,3/16
same,Tumour growth inhibition (%),[3]; 50 mg/Kg,69%
same,"Human plasma-protein binding, Percentage unbound (%)",[4]; Table 5.1A,1%
same,recovery at 4 h,"[4]; human, plasma",92%
same,TNF-mediated killing in SIK3 WT vs KO MC38 clones,[5],induced TNF-mediated killing only in SIK3 WT clones
same,half-life,in vitro,9 min
same,microsomal CLint,in vitro,158 µL/min/mg
same,half-life,[6],1.08 h
same,microsomal CLint,"[6]; read-out: Mouse hepatocyte stability, Intrinsic clearance",21 µL/min/mg
same,quinone-imine reactive metabolite,[7],not observed
same,IC50,SIK3,< 20 nM
same,Inhibition of HDAC4 phosphorylation,[8],++
same,EC50,[9],389 nM
same,IC50,"[10]; MC-38, read-out: MC38 IC50 (at 100 ng/mL rMuTNF)",< 100 nM
same,EC50,"[10]; MC-38, read-out: mean EC50 of sensitising MC38 tumour cells to TNF-mediated killing",< 100 nM
same,HCK residual activity,HCK,less than 1%
same,CSF1R residual activity,CSF1R,less than 1%
same,"Tukey's multiple comparisons test, Significance summary",[11]; E9 25 mg/kg bid vs. E9 […] bid,ns
same,"Tukey's multiple comparisons test, Significance summary",[11]; E9 25 mg/kg qd vs. E9 5 mg/kg bid,ns
same,tumour growth inhibition (TGI),[11]; 5 mg/kg BID,24% and 25%
same,tumour growth inhibition (TGI),[11]; 25 mg/kg BID,37%
same,tumour growth inhibition (TGI),[11]; 25 mg/kg QD,9%
same,"Tukey's multiple comparisons test, Significance summary",[11]; Vehicle vs. E9 25 mg/kg qd,ns
same,tumour growth inhibition,MC38 tumour,superior and more uniform tumour growth inhibition
same,AUC(0-inf),in vivo,9.63 µM·h
same,AUC(0-t),in vivo,9.58 µM·h
same,Cmax,in vivo,2690 ng/mL
same,MRT last,in vivo,3.38 h
same,Tmax,in vivo,0.25 h
same,half-life,in vivo,2.76 h
same,Inhibition of NFKB activity (PANC-1),[12],++
